Source: patent US12115157B2, “3-phenoxyazetidin-1-yl-heteroaryl pyrrolidine derivatives and the use thereof as medicament” (Boehringer Ingelheim International GmbH, priority 2021, dated 2024)

Tests used:
[1] = In vitro metabolite profiling in human liver microsomes in absence of NADPH; type: in vitro ADME; parameters: key: yes: Metabolite is formed in presence of human liver microsomes in the absence of cofactors as indication of a non-CYP-dependent pathway; Metabolite is not detected in microsomal incubations
Protocol: (§1) In vitro metabolite profiling to evaluate the involvement of non-CYP-enzyme-mediated metabolic pathways such as hydrolysis in addition to CYP-mediated pathways is based on the semiquantitative analysis of the formation of prototypic metabolites in incubations with liver microsomes (with and without beta-nicotinamide adenine dinucleotide phosphate, NADPH), primary human hepatocytes (with and without the pan-CYP inhibitor proadifen) and recombinant CYP enzymes.
(§2) The involvement of hydrolases, such as carboxylesterases or arylacetamide deacetylase, is assumed if the metabolite resulting from amide hydrolysis of a compound of the present invention of general formula (I) wherein R^6 is an acetyl-group, i.e. the deacetylated compound thereof, is not formed in presence of the relevant drug-metabolizing human recombinant CYP enzymes but is formed in human liver microsomes in the absence of NADPH. Hydrolases are highly abundant in liver microsomes; however, in contrast to CYP-related metabolic processes, the catalytic activity of hydrolases is independent of NADPH. As such, the deacetylated metabolite would be formed in incubations of human liver microsomes lacking NADPH.
(§3) A phenotyping assay was performed to identify the CYP enzymes responsible for metabolic conversion of the compound. The metabolic degradation of the test compound and the assessment of formation of metabolites was performed using Supersomes (human CYP expressed in baculovirus infected insect cells) and human liver microsomes, respectively. Compounds were tested specifically for their conversion by CYP isoenzymes 1A1, 1A2, 2B6, 2C8, 2C9, 2C19, 2D6, 3A4 and 3A5. […]
(§4) Following a short preincubation period for 15 min at 37° C., the reaction was initiated by addition of NADPH (reduced form, 1 mM). […] Samples were analyzed for formation of putative metabolites by means of by liquid chromatography-high resolution mass spectrometry.

[2] = test system: human plasma proteins; assay: Human plasma protein binding assay (equilibrium dialysis); type: in vitro ADME; conditions: 1 μM, 2 hours, 37° C.
Protocol: Equilibrium dialysis (ED) technique was used to determine the approximate in vitro fractional binding of test compounds to plasma proteins. Dianorm Teflon dialysis cells (micro 0.2) were used. Each dialysis cell consists of a donor and an acceptor chamber, separated by an ultrathin semipermeable membrane with a 5 kDa molecular weight cut-off. Stock solutions for each test compound were prepared in DMSO at 1 mM and serially diluted to obtain a final test concentration of 1 μM. The subsequent dialysis solutions were prepared in plasma (supplemented with NaEDTA as anticoagulant), and aliquots of 200 μL test compound dialysis solution in plasma were dispensed into the donor (plasma) chambers. Aliquots of 200 μL dialysis buffer (100 mM potassium phosphate, pH 7.4) were dispensed into the buffer (acceptor) chamber. Incubation was carried out for 2 hours under rotation at 37° C. for establishing equilibrium.
At the end of the dialysis period, aliquots obtained from donor and acceptor chambers, respectively, were transferred into reaction tubes, spiked with Internal Standard solution and processed for HPLC-MS/MS analysis. Analyte concentrations were quantified in aliquots of samples by HPLC-MS/MS against external calibration curves.
Percent bound was calculated using the formula: % bound=(plasma concentration−buffer concentration/plasma concentration)×100

[3] = test system: human recombinant CYP enzymes (1A1, 1A2, 2B6, 2C8, 2C9, 2C19, 2D6, 3A4, 3A5); assay: CYP phenotyping with human recombinant CYP enzymes (Supersomes); type: in vitro ADME; parameters: key: yes: Metabolite is formed in presence of human recombinant CYP-enzymes; Metabolite is not detected in presence of human recombinant CYP-enzymes as indication of a non-CYP-dependent pathway
Protocol: as §1, §2, §3, §4

[4] = target: human GPR52 (Homo sapiens (Human), UniProt Q9Y2T5); assay: HTRF assay for direct cAMP measurement; type: cell-based; conditions: CHO-K1 cells stably expressing recombinant human GPR52, mean EC50
Protocol: HTRF cAMP assays were performed using commercially available assay kits according to the manufacturer's instructions (cAMP Dynamic 2 Assay Kit; #62AM4PEJ, Cisbio Bioassays, Bedford, MA). An aliquot of CHO-K1 cells stably expressing recombinant human GPR52 was thawed and resuspended in cell buffer (1×PBS (w/o Ca^2+/Mg^2+)) at a density of 4×10^5 cells per mL. Test compounds were solubilized in DMSO to 10 mM stock solutions and serially diluted in DMSO using 6-fold dilutions to generate 8-point dose response curves. These serially diluted samples were then diluted 1:50 in compound dilution buffer (1×PBS (w/o Ca^2+/Mg^2+) containing 0.5 mM IBMX, 0.1% BSA) to achieve a 4× stock. The diluted compounds were transferred (5 μL per well) in duplicate to the 384-well assay plate (Optiplate #6007290, PerkinElmer, Waltham, MA). Both a positive (reference compound) and negative (non-stimulated vehicle) control was included in each assay run in column 23. The cell suspension was subsequently dispensed into the 384-well assay plates at 15 μL per well (6000 cells) such that the compound was diluted to 1×. […] After a one-hour incubation at room temperature, 10 μL of cAMP D2 reagent followed by 10 μL of cryptate reagent (provided in the Cisbio kit) was added to each well. Plates were then incubated at room temperature for one hour prior to reading. Time-resolved fluorescence measurements were collected on an EnVision® HTRF plate reader (PerkinElmer, Waltham, MA). Counts from the plate reader were fit to the cAMP standard curve included on each plate to determine the amount of cAMP in each test well. The % control was calculated based on the […]. Dose-response curves were generated from the cAMP data and analyzed using a nonlinear least squares curve-fitting program to obtain EC50 values.

[5] = secondary metabolite m405 (of m411)
[6] = secondary metabolite m425 (of m411)
[7] = secondary metabolite m443 (of m429)

human GPR52, sequence (Q9Y2T5 whole entry): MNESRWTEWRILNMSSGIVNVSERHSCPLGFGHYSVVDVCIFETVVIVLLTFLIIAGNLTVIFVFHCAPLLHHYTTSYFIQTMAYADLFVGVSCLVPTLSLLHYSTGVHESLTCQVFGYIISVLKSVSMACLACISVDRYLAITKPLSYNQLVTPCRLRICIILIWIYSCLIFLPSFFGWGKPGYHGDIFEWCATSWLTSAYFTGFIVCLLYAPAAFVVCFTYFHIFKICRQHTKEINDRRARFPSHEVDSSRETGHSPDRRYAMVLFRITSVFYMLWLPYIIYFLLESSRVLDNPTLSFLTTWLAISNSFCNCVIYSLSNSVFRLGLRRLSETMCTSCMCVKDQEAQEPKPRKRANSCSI

Formation in human liver microsomal incubations in absence of NADPH [1, 5] | Formation in human liver microsomal incubations in absence of NADPH [1, 6] | Hu PPB [2] [% bound] | Specific formation in human recombinant CYP enzymes [3, 5] | Specific formation in human recombinant CYP enzymes [3, 6] | EC50 [4] [nM] | Formation in human liver microsomal incubations in absence of NADPH [1, 7] | Specific formation in human recombinant CYP enzymes [3, 7] | Compound
no^5 | no^5 | 82.4 | no^5 | no^5 | 14 | – | – | CC(=O)N1C[C@H](NC(=O)c2nccnc2N2CC(Oc3cc(F)cc(F)c3)C2)C(F)(F)C1 [Example 10a]
– | – | 84.4 | – | – | – | no^6 | no | CC(=O)N1C[C@H](NC(=O)c2nccnc2N2CC(Oc3cc(F)c(F)c(F)c3)C2)C(F)(F)C1 [Example 11b]
– | – | 90.2 | – | – | 20 | – | – | CC(=O)N1CC[C@@H](NC(=O)c2nsnc2N2CC(Oc3cc(F)cc(F)c3)C2)C1 [Example 15a]
